{"source": "patent US9902702B2", "about": "“Spirocycloheptanes as inhibitors of rock” (BRISTOL-MYERS SQUIBB COMPANY, priority 2014, dated 2018)", "data": [{"target": "ROCK2 (Homo sapiens, UniProt O75116)", "sequence (O75116 whole entry, species assumed)": "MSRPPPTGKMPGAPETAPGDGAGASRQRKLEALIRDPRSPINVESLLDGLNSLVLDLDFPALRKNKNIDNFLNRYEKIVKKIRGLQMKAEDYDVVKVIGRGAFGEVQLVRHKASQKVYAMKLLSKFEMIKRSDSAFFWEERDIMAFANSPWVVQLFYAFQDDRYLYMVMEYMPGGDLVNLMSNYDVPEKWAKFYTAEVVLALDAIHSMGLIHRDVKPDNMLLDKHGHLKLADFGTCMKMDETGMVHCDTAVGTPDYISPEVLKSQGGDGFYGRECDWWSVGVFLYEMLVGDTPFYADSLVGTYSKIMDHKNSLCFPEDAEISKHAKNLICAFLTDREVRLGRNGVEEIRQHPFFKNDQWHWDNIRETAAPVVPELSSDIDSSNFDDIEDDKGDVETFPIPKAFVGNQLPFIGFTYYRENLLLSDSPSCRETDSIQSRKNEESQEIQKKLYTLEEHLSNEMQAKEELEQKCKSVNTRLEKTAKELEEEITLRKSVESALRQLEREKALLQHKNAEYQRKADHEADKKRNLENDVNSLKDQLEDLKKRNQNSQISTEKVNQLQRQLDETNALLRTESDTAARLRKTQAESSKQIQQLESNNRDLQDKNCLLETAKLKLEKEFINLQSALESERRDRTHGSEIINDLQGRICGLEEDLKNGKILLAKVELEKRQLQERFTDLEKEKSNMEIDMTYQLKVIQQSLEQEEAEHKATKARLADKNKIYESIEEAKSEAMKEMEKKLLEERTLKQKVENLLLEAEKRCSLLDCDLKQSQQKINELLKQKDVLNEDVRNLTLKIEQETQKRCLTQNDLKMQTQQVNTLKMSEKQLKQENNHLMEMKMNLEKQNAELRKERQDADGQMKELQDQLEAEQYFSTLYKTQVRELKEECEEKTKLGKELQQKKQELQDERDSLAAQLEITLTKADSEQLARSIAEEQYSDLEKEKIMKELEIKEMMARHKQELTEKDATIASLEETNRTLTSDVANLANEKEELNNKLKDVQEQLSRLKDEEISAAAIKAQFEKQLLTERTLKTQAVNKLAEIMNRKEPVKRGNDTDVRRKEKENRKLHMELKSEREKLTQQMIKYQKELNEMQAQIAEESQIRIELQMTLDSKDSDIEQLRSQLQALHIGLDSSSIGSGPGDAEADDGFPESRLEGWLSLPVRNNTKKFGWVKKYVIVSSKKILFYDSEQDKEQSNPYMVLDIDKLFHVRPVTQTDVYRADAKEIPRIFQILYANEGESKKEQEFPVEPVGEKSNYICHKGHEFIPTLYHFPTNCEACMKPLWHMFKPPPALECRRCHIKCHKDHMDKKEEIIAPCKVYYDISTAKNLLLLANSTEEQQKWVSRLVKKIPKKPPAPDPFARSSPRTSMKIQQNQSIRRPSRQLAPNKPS", "test": "ROCK assay: phosphorylation of FITC peptide substrate, LABCHIP 3000 mobility shift", "type": "biochemical", "details": "5 μM ATP, 1.5 μM peptide substrate; read-out: ROCK2 Activity (ROCK IC50 range)", "procedure,_shortened": "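IC50 values come from curve-fitting percent kinase inhibition across a compound dilution series. The reaction is started with Rho kinase variant in HEPES pH 7.5 buffer with MgCl2, Brij-35 and DTT, with 5 μM ATP, 1.5 μM FITC-labelled peptide and under 2% DMSO. After EDTA quench, product and substrate are separated by microfluidic mobility shift.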", "units": {"IC50": "nM"}, "values": [{"smiles": "[H][C@]1(c2n[nH]c(=O)c3ccccc32)C[C@]2(C[C@@H](NC(=O)c3cnc4cc(OCc5ccccc5)ccn34)C2)C1", "note": "(stereo partly drawn) [Example 384, 7-(benzyloxy)-N-((aR)-6-(4-oxo-3,4-dihydrophthalazin-1-yl)spiro[3.3]heptan-2-yl)imidazo[1,2-a]pyridine-3-carboxamide]", "IC50": "0.2 to 2"}, {"smiles": "[H][C@]1(c2n[nH]c(=O)c3ccccc32)C[C@]2(C[C@@H](NC(=O)c3cnc4cc(OC)ccn34)C2)C1", "note": "(stereo partly drawn) [Example 385, 7-methoxy-N-((aR)-6-(4-oxo-3,4-dihydrophthalazin-1-yl)spiro[3.3]heptan-2-yl)imidazo[1,2-a]pyridine-3-carboxamide]", "IC50": "0.2 to 2"}, {"smiles": "[H][C@]1(c2n[nH]c(=O)c3ccccc32)C[C@]2(C[C@@H](NC(=O)c3cnc4c(Cl)c(C)ccn34)C2)C1", "note": "(stereo partly drawn) [Example 386, 8-chloro-7-methyl-N-((aR)-6-(4-oxo-3,4-dihydro-phthalazin-1-yl)spiro[3.3]heptan-2-yl)imidazo[1,2-a]pyridine-3-carboxamide]", "IC50": "2.01 to 5"}, {"smiles": "[H][C@]1(c2n[nH]c(=O)c3ccccc32)C[C@]2(C[C@@H](NC(=O)c3cnc4cc(F)ccn34)C2)C1", "note": "(stereo partly drawn) [Example 387, 7-fluoro-N-((aR)-6-(4-oxo-3,4-dihydrophthalazin-1-yl)spiro[3.3]heptan-2-yl)imidazo[1,2-a]pyridine-3-carboxamide]", "IC50": "2.01 to 5"}, {"smiles": "[H][C@]1(c2n[nH]c(=O)c3ccccc32)C[C@]2(C[C@@H](NC(=O)c3nc(C(C)C)n4c3CCCC4)C2)C1", "note": "(stereo partly drawn) [Example 388, 3-isopropyl-N-((aR)-6-(4-oxo-3,4-dihydrophthalazin-1-yl)spiro[3.3]heptan-2-yl)-5,6,7,8-tetrahydro-imidazo[1,5-a]pyridine-1-carboxamide]", "IC50": "2.01 to 5"}, {"smiles": "[H][C@]1(c2n[nH]c(=O)c3ccccc32)C[C@]2(C[C@@H](NC(=O)c3nnc4ccccn34)C2)C1", "note": "(stereo partly drawn) [Example 389, N-((aR)-6-(4-oxo-3,4-dihydrophthalazin-1-yl)spiro[3.3]heptan-2-yl)-[1,2,4]triazolo[4,3-a]pyridine-3-carboxamide]", "IC50": "5.1 to 15"}, {"smiles": "[H][C@]1(c2n[nH]c(=O)c3ccccc32)C[C@]2(C[C@@H](NC(=O)c3cnc4ccc(C(F)(F)F)cn34)C2)C1", "note": "(stereo partly drawn) [Example 390, N-((aR)-6-(4-oxo-3,4-dihydrophthalazin-1-yl)spiro[3.3]heptan-2-yl)-6-(trifluoro-methyl)imidazo[1,2-a]pyridine-3-carboxamide]", "IC50": "5.1 to 15"}, {"smiles": "[H][C@]1(c2n[nH]c(=O)c3ccccc32)C[C@]2(C[C@@H](NC(=O)c3cnc4cc(N5CCC(F)(F)CC5)ccn34)C2)C1", "note": "(stereo partly drawn) [Example 391, 7-(4,4-difluoropiperidin-1-yl)-N-((aR)-6-(4-oxo-3,4-dihydrophthalazin-1-yl)spiro[3.3]heptan-2-yl)imidazo[1,2-a]pyridine-3 carboxamide]", "IC50": "0.2 to 2"}, {"smiles": "[H][C@]1(c2n[nH]c(=O)c3ccccc32)C[C@]2(C[C@@H](NC(=O)c3cnc4cc(N5CCC(F)(F)C5)ccn34)C2)C1", "note": "(stereo partly drawn) [Example 392, 7-(3,3-difluoropyrrolidin-1-yl)-N-((aR)-6-(4-oxo-3,4-dihydrophthalazin-1-yl)spiro[3.3]heptan-2-yl)imidazo[1,2-a]pyridine-3 carboxamide]", "IC50": "0.2 to 2"}, {"smiles": "[H][C@]1(c2n[nH]c(=O)c3ccccc32)C[C@@]2(C[C@H](NC(=O)c3cnc4cc(N5CC[C@@H](F)C5)ccn34)C2)C1", "note": "(stereo partly drawn) [Example 393, 7-((R)-3-fluoropyrrolidin-1-yl)-N-((aR)-6-(4-oxo-3,4-dihydrophthalazin-1-yl)spiro[3.3]heptan-2-yl)imidazo[1,2-a]pyridine-3-carboxamide]", "IC50": "0.2 to 2"}, {"smiles": "[H][C@]1(c2n[nH]c(=O)c3ccccc32)C[C@@]2(C[C@H](NC(=O)c3cnc4cc(N5CC[C@H](F)C5)ccn34)C2)C1", "note": "(stereo partly drawn) [Example 394, 7-((S)-3-fluoropyrrolidin-1-yl)-N-((aR)-6-(4-oxo-3,4-dihydrophthalazin-1-yl)spiro[3.3]heptan-2-yl)imidazo[1,2-a]pyridine-3-carboxamide]", "IC50": "0.2 to 2"}, {"smiles": "[H][C@]1(c2n[nH]c(=O)c3ccccc32)C[C@@]2(C[C@H](NC(=O)c3cnc4cc(N5CC[C@@H](O)C5)ccn34)C2)C1", "note": "(stereo partly drawn) [Example 395, 7-((R)-3-hydroxypyrrolidin-1-yl)-N-((aR)-6-(4-oxo-3,4-dihydrophthalazin-1-yl)spiro[3.3]heptan-2-yl)imidazo[1,2-a]pyridine-3-carboxamide]", "IC50": "2.01 to 5"}, {"smiles": "[H][C@]1(c2n[nH]c(=O)c3ccccc32)C[C@]2(C[C@@H](NC(=O)c3cnc4cc(N(C)CCO)ccn34)C2)C1", "note": "(stereo partly drawn) [Example 396, 7-((2-hydroxy-ethyl)(methyl)amino)-N-((aR)-6-(4-oxo-3,4-dihydrophthalazin-1-yl)spiro[3.3]heptan-2-yl)imidazo[1,2-a]pyridine-3-carboxamide]", "IC50": "2.01 to 5"}, {"smiles": "[H][C@]1(c2n[nH]c(=O)c3ccccc32)C[C@]2(C[C@@H](NC(=O)c3cnc4cc(N(C)CCOC)ccn34)C2)C1", "note": "(stereo partly drawn) [Example 397, 7-((2-methoxy-ethyl)(methyl)amino)-N-((aR)-6-(4-oxo-3,4-dihydrophthalazin-1-yl)spiro[3.3]heptan-2-yl)imidazo[1,2-a]pyridine-3-carboxamide]", "IC50": "0.2 to 2"}, {"smiles": "[H][C@]1(c2n[nH]c(=O)c3ccccc32)C[C@]2(C[C@@H](NC(=O)c3cnc4cc(OCCN5CCOCC5)ccn34)C2)C1", "note": "(stereo partly drawn) [Example 398, 7-(2-morpholinoethoxy)-N-((aR)-6-(4-oxo-3,4-dihydrophthalazin-1-yl)spiro[3.3]heptan-2-yl)imidazo[1,2-a]pyridine-3-carboxamide]", "IC50": "0.2 to 2"}, {"smiles": "[H][C@]1(c2n[nH]c(=O)c3ccccc32)C[C@]2(C[C@@H](NC(=O)c3cnc4cc(N(C)CC(C)(C)O)ccn34)C2)C1", "note": "(stereo partly drawn) [Example 399, 7-((2-hydroxy-2-methyl-propyl)(methyl)amino)-N-((aR)-6-(4-oxo-3,4-dihydrophthalazin-1-yl)spiro[3.3]heptan-2-yl)imidazo[1,2-a]pyridine-3-carboxamide]", "IC50": "2.01 to 5"}, {"smiles": "[H][C@]1(c2n[nH]c(=O)c3ccccc32)C[C@]2(C[C@@H](NC(=O)c3cnc4cc(OCC(C)(C)O)ccn34)C2)C1", "note": "(stereo partly drawn) [Example 400, 7-(2-hydroxy-2-methylpropoxy)-N-((aR)-6-(4-oxo-3,4-dihydrophthalazin-1-yl)spiro[3.3]heptan-2-yl)imidazo[1,2-a]pyridine-3-carboxamide]", "IC50": "0.2 to 2"}, {"smiles": "[H][C@]1(c2n[nH]c(=O)c3ccccc32)C[C@]2(C[C@@H](NC(=O)c3cnc4cc(OCCN5CCCC5)ccn34)C2)C1", "note": "(stereo partly drawn) [Example 401, N-((aR)-6-(4-oxo-3,4-dihydrophthalazin-1-yl)spiro[3.3]heptan-2-yl)-7-(2-(pyrrolidin-1-yl)ethoxy)imidazo[1,2-a]pyridine-3-carboxamide]", "IC50": "2.01 to 5"}, {"smiles": "[H][C@]1(c2n[nH]c(=O)c3ccccc32)C[C@]2(C[C@@H](NC(=O)c3cn(CC(C)(C)O)c4cc(=O)ccn34)C2)C1", "note": "(stereo partly drawn) [Example 402, 1-(2-hydroxy-2-methylpropyl)-7-oxo-N-((aR)-6-(4-oxo-3,4-dihydrophthalazin-1-yl)spiro[3.3]heptan-2-yl)-1,7-dihydroimidazo[1,2-a]pyridine-3-carboxamide]", "IC50": "100 to 2100"}, {"smiles": "[H][C@]1(c2n[nH]c(=O)c3ccccc32)C[C@]2(C[C@@H](NC(=O)c3cnc4cc(C(F)(F)F)ccn34)C2)C1", "note": "(stereo partly drawn) [Example 403, N-((aR)-6-(4-oxo-3,4-dihydrophthalazin-1-yl)spiro[3.3]heptan-2-yl)-7-(trifluoromethyl)imidazo[1,2-a]pyridine-3-carboxamide]", "IC50": "2.01 to 5"}, {"smiles": "[H][C@]1(c2n[nH]c(=O)c3ccccc32)C[C@]2(C[C@@H](NC(=O)c3cnc4c(F)cc(C(F)(F)F)cn34)C2)C1", "note": "(stereo partly drawn) [Example 404, 8-fluoro-N-((aR)-6-(4-oxo-3,4-dihydrophthalazin-1-yl)spiro[3.3]heptan-2-yl)-6-(trifluoromethyl)imidazo[1,2-a]pyridine-3-carboxamide]", "IC50": "15.1 to 100"}, {"smiles": "[H][C@]1(c2n[nH]c(=O)c3ccccc32)C[C@]2(C[C@@H](NC(=O)c3cnc4c(C)cc(F)cn34)C2)C1", "note": "(stereo partly drawn) [Example 405, 6-fluoro-8-methyl-N-((aR)-6-(4-oxo-3,4-dihydrophthalazin-1-yl)spiro[3.3]heptan-2-yl)imidazo[1,2-a]pyridine-3-carboxamide]", "IC50": "0.2 to 2"}, {"smiles": "[H][C@]1(c2n[nH]c(=O)c3ccccc32)C[C@]2(C[C@@H](NC(=O)c3cnc4cc(OC(F)F)ccn34)C2)C1", "note": "(stereo partly drawn) [Example 406, 7-(difluoromethoxy)-N-((aR)-6-(4-oxo-3,4-dihydrophthalazin-1-yl)spiro[3.3]heptan-2-yl)imidazo[1,2-a]pyridine-3-carboxamide]", "IC50": "0.2 to 2"}, {"smiles": "[H][C@]1(c2n[nH]c(=O)c3ccccc32)C[C@]2(C[C@@H](NC(=O)c3cnc4ccc(F)c(C)n34)C2)C1", "note": "(stereo partly drawn) [Example 407, 6-fluoro-5-methyl-N-((aR)-6-(4-oxo-3,4-dihydrophthalazin-1-yl)spiro[3.3]heptan-2-yl)imidazo[1,2-a]pyridine-3-carboxamide]", "IC50": "15.1 to 100"}, {"smiles": "[H][C@]1(c2n[nH]c(=O)c3ccccc32)C[C@]2(C[C@@H](NC(=O)c3cnc4ccc(F)cn34)C2)C1", "note": "(stereo partly drawn) [Example 408, 6-fluoro-N-((aR)-6-(4-oxo-3,4-dihydrophthalazin-1-yl)spiro[3.3]heptan-2-yl)imidazo[1,2-a]pyridine-3-carboxamide]", "IC50": "2.01 to 5"}, {"smiles": "[H][C@]1(c2n[nH]c(=O)c3ccccc32)C[C@]2(C[C@@H](NC(=O)c3cnc4cc(NCC(C)(C)O)ccn34)C2)C1", "note": "(stereo partly drawn) [Example 409, 7-((2-hydroxy-2-methylpropyl)amino)-N-((aR)-6-(4-oxo-3,4-dihydrophthalazin-1-yl)spiro[3.3]heptan-2-yl)imidazo[1,2-a]pyridine-3-carboxamide,]", "IC50": "2.01 to 5"}, {"smiles": "[H][C@]1(c2n[nH]c(=O)c3ccccc32)C[C@]2(C[C@@H](NC(=O)c3cnc4cc(C)c(F)cn34)C2)C1", "note": "(stereo partly drawn) [Example 410, 6-fluoro-7-methyl-N-((aR)-6-(4-oxo-3,4-dihydrophthalazin-1-yl)spiro[3.3]heptan-2-yl)imidazo[1,2-a]pyridine-3-carboxamide]", "IC50": "2.01 to 5"}]}]}
